Results taken from patent US11427567B2, “Imidazolyl pyrimidinylamine compounds as CDK2 inhibitors” (Incyte Corporation, priority 2019, dated 2022).
pIC50: −log10 of the molar value.

Each molecule was assayed against CDK2/Cyclin E1 (Homo sapiens (Human), UniProt P24941) (assay: CDK2/Cyclin E1 HTRF enzyme activity assay (Example A)). Details: 1 mM ATP.
Assay type: biochemical
Experimental: Assays were conducted in white 384-well polystyrene plates in a final reaction volume of 8 μL. […] HTRF signals were read after 1 hour at room temperature on a PHERAstar FS plate reader (BMG Labtech). Data was analyzed with IDBS XLFit and GraphPad Prism 5.0 software using a three or four parameter dose response curve to determine IC50 for each compound.

pIC50, ≥ 7.30:
Cc1nc(-c2nc(NC3CCN(S(C)(=O)=O)CC3)ncc2C(F)(F)F)cn1-c1cccc(C#N)c1F [Example 304, 2-Fluoro-3-(2-methyl-4-(2-((1-(methylsulfonyl)piperidin-4-yl)amino)-5-(trifluoromethyl)pyrimidin-4-yl)-1H-imidazol-1-yl)benzonitrile]
Cn1cnc(-c2nc(NC3CCN(S(C)(=O)=O)CC3)ncc2C(F)(F)F)c1Cl [Example 14, 4-(5-Chloro-1-methyl-1H-imidazol-4-yl)-N-(1-(methylsulfonyl)piperidin-4-yl)-5-(trifluoromethyl)pyrimidin-2-amine]
CS(=O)(=O)N1CCC(Nc2ncc(C(F)(F)F)c(-c3cn(-c4ccc(Cn5nccn5)cc4Cl)cn3)n2)CC1 [Example 241, 4-(1-(4-((2H-1,2,3-Triazol-2-yl)methyl)-2-chlorophenyl)-1H-imidazol-4-yl)-N-(1-(methylsulfonyl)piperidin-4-yl)-5-(trifluoromethyl)pyrimidin-2-amine]
CC(C)(O)Cn1cnc(-c2nc(N[C@H]3CCN(S(C)(=O)=O)C[C@H]3F)ncc2C(F)(F)F)c1 [Example 325, 1-(4-(2-(((3R,4S)-3-Fluoro-1-(methylsulfonyl)piperidin-4-yl)amino)-5-(trifluoromethyl)pyrimidin-4-yl)-1H-imidazol-1-yl)-2-methylpropan-2-ol]
CNC(=O)c1ccc(-n2cnc(-c3nc(NC4CCN(S(C)(=O)=O)CC4)ncc3C(F)(F)F)c2)c(C)n1 [Example 132, N,6-Dimethyl-5-(4-(2-((1-(methyl-sulfonyl)piperidin-4-yl)amino)-5-(trifluoromethyl)-pyrimidin-4-yl)-1H-imidazol-1-yl)picolinamide]
CS(=O)(=O)N1CC[C@@H](Nc2ncc(C(F)(F)F)c(-c3cn(-c4ccc(CN5CCC5)cc4Cl)cn3)n2)[C@H](F)C1 [Example 399, 4-(1-(4-(Azetidin-1-ylmethyl)-2-chlorophenyl)-1H-imidazol-4-yl)-N-((3R,4R)-3-fluoro-1-(methylsulfonyl)piperidin-4-yl)-5-(trifluoromethyl)pyrimidin-2-amine]
Cc1nc(-c2nc(N[C@H]3CCN(S(C)(=O)=O)C[C@H]3F)ncc2C(F)(F)F)cn1-c1ccc(CN2CCN(C)CC2)cc1F [Example 387, N-((3R,4S)-3-Fluoro-1-(methylsulfonyl)piperidin-4-yl)-4-(1-(2-fluoro-4-((4-methylpiperazin-1-yl)methyl)phenyl)-2-methyl-1H-imidazol-4-yl)-5-(trifluoromethyl)pyrimidin-2-amine]
CS(=O)(=O)N1CCC(Nc2ncc(C(F)(F)F)c(-c3cn(-c4ccnc(N5CCOCC5)c4Cl)cn3)n2)CC1 [Example 320]
CC(C)(O)Cn1cnc(-c2nc(NC3CCN(S(=O)(=O)C4CC4)CC3)ncc2C(F)(F)F)c1 [Example 30, 1-(4-(2-((1-(Cyclopropylsulfonyl)piperidin-4-yl)amino)-5-(trifluoromethyl)pyrimidin-4-yl)-1H-imidazol-1-yl)-2-methylpropan-2-ol]
CS(=O)(=O)N1CCC(Nc2ncc(C(F)(F)F)c(-c3cn(-c4cccc(CN5CC(C#N)C5)c4Cl)cn3)n2)CC1 [Example 463, 1-(2-Chloro-3-(4-(2-((1-(methylsulfonyl)piperidin-4-yl)amino)-5-(trifluoromethyl)pyrimidin-4-yl)-1H-imidazol-1-yl)benzyl)azetidine-3-carbonitrile]
C[C@@H]1CN(S(C)(=O)=O)CC[C@@H]1Nc1ncc(C(F)(F)F)c(-c2cn(-c3ccc(CN4CCC4)cc3Cl)cn2)n1 [Example 219, 4-(1-(4-(Azetidin-1-ylmethyl)-2-chloro-phenyl)-1H-imidazol-4-yl)-N-((3R,4S)-3-methyl-1-(methyl-sulfonyl)piperidin-4-yl)-5-(trifluoro-methyl)pyrimidin-2-amine]
Cc1c(-n2cnc(-c3nc(NC4CCN(S(C)(=O)=O)CC4)ncc3C(F)(F)F)c2)ccc2nccnc12 [Example 166, 4-(1-(5-Methylquinoxalin-6-yl)-1H-imidazol-4-yl)-N-(1-(methylsulfonyl)piperidin-4-yl)-5-(trifluoromethyl)pyrimidin-2-amine]
Cc1nc(-c2nc(N[C@H]3CCN(S(C)(=O)=O)C[C@H]3F)ncc2C(F)(F)F)cn1-c1ccc(CN(C)C)cc1F [Example 286, 4-(1-(4-((Dimethylamino)methyl)-2-fluorophenyl)-2-methyl-1H-imidazol-4-yl)-N-((3R,4S)-3-fluoro-1-(methylsulfonyl)piperidin-4-yl)-5-(trifluoromethyl)pyrimidin-2-amine]
CS(=O)(=O)N1CC[C@H](Nc2ncc(C(F)(F)F)c(-c3cn(-c4ccnc(C#N)c4Cl)cn3)n2)[C@H](F)C1 [Example 308, 3-Chloro-4-(4-(2-(((3R,4S)-3-fluoro-1-(methylsulfonyl)piperidin-4-yl)amino)-5-(trifluoromethyl)pyrimidin-4-yl)-1H-imidazol-1-yl)picolinonitrile]
CS(=O)(=O)N1CCC(Nc2ncc(C#N)c(-c3cn(-c4ccc(C#N)cc4Cl)cn3)n2)CC1 [Example 28, 4-(1-(2-Chloro-4-cyanophenyl)-1H-imidazol-4-yl)-2-((1-(methylsulfonyl)piperidin-4-yl)amino)pyrimidine-5-carbonitrile]
CS(=O)(=O)N1CCC(Nc2ncc(C(F)(F)F)c(-c3cn(-c4ccc(CN5CCCC5)cc4Cl)cn3)n2)CC1 [Example 178, 4-(1-(2-Chloro-4-(pyrrolidin-1-ylmethyl)phenyl)-1H-imidazol-4-yl)-N-(1-(methylsulfonyl)piperidin-4-yl)-5-(trifluoromethyl)pyrimidin-2-amine]
Cn1cnc(S(=O)(=O)N2CCC(Nc3ncc(C(F)(F)F)c(-c4ncn(C)c4Cl)n3)CC2)c1 [Example 20, 4-(5-Chloro-1-methyl-1H-imidazol-4-yl)-N-(1-((1-methyl-1H-imidazol-4-yl)sulfonyl)piperidin-4-yl)-5-(trifluoromethyl)pyrimidin-2-amine]
CC(CN(C)C)Oc1ccc(-n2cnc(-c3nc(NC4CCN(S(C)(=O)=O)CC4)ncc3C(F)(F)F)c2)c(C(F)(F)F)n1 (stereo not drawn) [Example 73, 4-(1-(6-((1-(Dimethylamino)propan-2-yl)oxy)-2-(trifluoromethyl)pyridin-3-yl)-1H-imidazol-4-yl)-N-(1-(methylsulfonyl)piperidin-4-yl)-5-(trifluoromethyl)pyrimidin-2-amine]
CS(=O)(=O)N1CC[C@@H](Nc2ncc(C(F)(F)F)c(-c3cn(CC(F)F)cn3)n2)[C@H](F)C1 [Example 331, 4-(1-(2,2-Difluoroethyl)-1H-imidazol-4-yl)-N-((3R,4R)-3-fluoro-1-(methylsulfonyl)piperidin-4-yl)-5-(trifluoromethyl)pyrimidin-2-amine]
Cc1nc(-c2nc(NC3CCN(S(C)(=O)=O)CC3)ncc2C(F)(F)F)cn1-c1ccc(N2CCC(N(C)C)CC2)cc1F [Example 101, 4-(1-(4-(4-(Dimethylamino)piperidin-1-yl)-2-fluorophenyl)-2-methyl-1H-imidazol-4-yl)-N-(1-(methylsulfonyl)piperidin-4-yl)-5-(trifluoromethyl)pyrimidin-2-amine]
CS(=O)(=O)N1CCC(Nc2ncc(C(F)(F)F)c(-c3cn(-c4ccc(CN5CC(C#N)C5)cc4Cl)cn3)n2)CC1 [Example 198, 1-(3-Chloro-4-(4-(2-((1-(methylsulfonyl)-piperidin-4-yl)amino)-5-(trifluoromethyl)-pyrimidin-4-yl)-1H-imidazol-1-yl)benzyl)-azetidine-3-carbonitrile]
C[C@@]1(O)CCN(CCc2cccc(-n3cnc(-c4nc(NC5CCN(S(C)(=O)=O)CC5)ncc4C(F)(F)F)c3)c2Cl)C1 [Example 374, (R)-1-(2-Chloro-3-(4-(2-((1-(methylsulfonyl)piperidin-4-yl)amino)-5-(trifluoromethyl)pyrimi-din-4-yl)-1H-imidazol-1-yl)phenethyl)-3-methylpyrrolidin-3-ol]
CNCCN(C)c1ccc(-n2cnc(-c3nc(NC4CCN(S(C)(=O)=O)CC4)ncc3C(F)(F)F)c2)c(C#N)c1 [Example 431, 5-(Methyl(2-(methylamino)ethyl)amino)-2-(4-(2-((1-(methylsulfonyl)piperidin-4-yl)amino)-5-(trifluoromethyl)pyrimidin-4-yl)-1H-imidazol-1-yl)benzonitrile]
CC(C)(O)Cn1cnc(-c2nc(NC3CCN(S(C)(=O)=O)CC3)ncc2C#N)c1 [Example 27, 4-(1-(2-Hydroxy-2-methylpropyl)-1H-imidazol-4-yl)-2-((1-(methylsulfonyl)piperidin-4-yl)amino)pyrimidine-5-carbonitrile]
Cc1cc(CN2CCC2)ccc1-n1cc(-c2nc(NC3CCN(S(C)(=O)=O)CC3)ncc2C(F)(F)F)nc1C [Example 285, 4-(1-(4-(Azetidin-1-ylmethyl)-2-methylphenyl)-2-methyl-1H-imidazol-4-yl)-N-(1-(methylsulfonyl)piperidin-4-yl)-5-(trifluoromethyl)pyrimidin-2-amine]
CS(=O)(=O)N1CCC(Nc2ncc(C(F)(F)F)c(-c3cn(-c4ccccc4C#N)cn3)n2)CC1 [Example 31, 2-(4-(2-((1-(Methylsulfonyl)piperidin-4-yl)amino)-5-(trifluoromethyl)pyrimidin-4-yl)-1H-imidazol-1-yl)benzonitrile]
CS(=O)(=O)N1CCC(Nc2ncc(C(F)(F)F)c(-c3cn(-c4ccc(Cn5ccnc5)cc4Cl)cn3)n2)CC1 [Example 238, 4-(1-(4-((H-Imidazol-1-yl)methyl)-2-chlorophenyl)-1H-imidazol-4-yl)-N-(1-(methylsulfonyl)piperidin-4-yl)-5-(trifluoromethyl)pyrimidin-2-amine]
